Laboratory results reported in patent publication US20220073496A1, “NOVEL QUINOLINE DERIVATIVE INHIBITOR” (Nanjing Transthera Biosciences Co., Ltd., priority 2018, published 2022).

Assays:
Tyro-3 (h) = target: T1, Tyro-3 (h) (Homo sapiens, UniProt Q06418); assay: Enzymatic activity test, Tyro-3 (h); format: biochemical; conditions: 10 μM [γ-33P]-ATP, 40 minutes, room temperature
T1 construct: purchased
T1 sequence (Q06418 41-890): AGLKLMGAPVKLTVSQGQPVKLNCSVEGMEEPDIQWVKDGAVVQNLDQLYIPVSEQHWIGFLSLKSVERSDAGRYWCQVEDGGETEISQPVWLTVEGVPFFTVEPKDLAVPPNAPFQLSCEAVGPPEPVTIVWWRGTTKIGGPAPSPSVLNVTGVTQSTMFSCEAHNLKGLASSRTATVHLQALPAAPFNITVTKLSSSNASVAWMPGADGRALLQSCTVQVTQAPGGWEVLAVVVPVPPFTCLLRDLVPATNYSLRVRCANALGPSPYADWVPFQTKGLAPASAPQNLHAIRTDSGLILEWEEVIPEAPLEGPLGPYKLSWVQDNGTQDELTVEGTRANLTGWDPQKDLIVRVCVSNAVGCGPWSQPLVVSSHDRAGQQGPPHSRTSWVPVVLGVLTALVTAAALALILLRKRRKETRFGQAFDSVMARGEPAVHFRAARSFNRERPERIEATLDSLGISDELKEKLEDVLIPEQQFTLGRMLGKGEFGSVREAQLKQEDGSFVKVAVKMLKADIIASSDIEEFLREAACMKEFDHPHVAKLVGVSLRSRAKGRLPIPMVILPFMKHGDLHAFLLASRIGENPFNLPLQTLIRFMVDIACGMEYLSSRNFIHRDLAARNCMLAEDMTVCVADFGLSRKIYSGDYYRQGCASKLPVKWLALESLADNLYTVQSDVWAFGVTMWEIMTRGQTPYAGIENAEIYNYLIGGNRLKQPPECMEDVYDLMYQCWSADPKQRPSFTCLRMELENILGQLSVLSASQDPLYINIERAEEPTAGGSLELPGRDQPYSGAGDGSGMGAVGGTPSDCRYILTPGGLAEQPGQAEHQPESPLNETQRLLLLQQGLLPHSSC
Procedure: Assay 3: Enzymatic Activity Test of the Compounds of the Present Invention
Test substances: the compounds of the present invention, wherein the structures and preparations thereof were as described above.
(1) Preparation of the Compound Stock Solution
The compound was dissolved in 100% DMSO to prepare a stock solution with a maximum concentration of 500 μM.
(2) Preparation of the Compound Working Solution
The compound stock solution was diluted to final concentrations of 500, 150, 50, 15, 5, 1.5, 0.5, 0.15 and 0.05 μM to become the compound working solutions (50×).
(3) Preparation of Different Enzyme Reaction Solutions
The Tyro3 (h) enzyme was dissolved in 8 mM MOPS (pH 7.0), 0.2 mM EDTA, 1 mM MnCl2, and 250 μM KVEKIGEGTYGVVYK to prepare an enzyme solution having a final concentration of 38 nM. The enzymatic reaction was activated by using 10 mM magnesium acetate and 10 μM [γ-^33P]-ATP to form an Mg/ATP mixed solution.
In a 384-well plate, the compound working solution was added to final concentrations of 10000, 3000, 1000, 300, 100, 30, 10, 3, and 1 nM. Then different enzyme reaction solutions prepared according to the above conditions were added. The incubation was carried out for 40 minutes at room temperature. The test was terminated by the addition of a 0.5% phosphoric acid solution. 10 μL of the reaction solution was taken and dropped to the P30 filter paper. The filter paper was washed 4 times with 0.425% phosphoric acid solution and once with methanol, and then placed on a scintillation counter. The […] IC50 values were calculated using GraphPad 5.0 software.

H1299 cell pAxl = target: T2, H1299 cell pAxl (Homo sapiens, UniProt P30530); assay: Inhibitory activity on the cell pAxl (Western Blot); format: cell-based; conditions: H1299 cells, compound 1.1, 3.3, 10, 30 nM, hGAS6 200 ng/mL
T2 construct: endogenous in cells; host or cells: H1299
T2 sequence (P30530 26-894): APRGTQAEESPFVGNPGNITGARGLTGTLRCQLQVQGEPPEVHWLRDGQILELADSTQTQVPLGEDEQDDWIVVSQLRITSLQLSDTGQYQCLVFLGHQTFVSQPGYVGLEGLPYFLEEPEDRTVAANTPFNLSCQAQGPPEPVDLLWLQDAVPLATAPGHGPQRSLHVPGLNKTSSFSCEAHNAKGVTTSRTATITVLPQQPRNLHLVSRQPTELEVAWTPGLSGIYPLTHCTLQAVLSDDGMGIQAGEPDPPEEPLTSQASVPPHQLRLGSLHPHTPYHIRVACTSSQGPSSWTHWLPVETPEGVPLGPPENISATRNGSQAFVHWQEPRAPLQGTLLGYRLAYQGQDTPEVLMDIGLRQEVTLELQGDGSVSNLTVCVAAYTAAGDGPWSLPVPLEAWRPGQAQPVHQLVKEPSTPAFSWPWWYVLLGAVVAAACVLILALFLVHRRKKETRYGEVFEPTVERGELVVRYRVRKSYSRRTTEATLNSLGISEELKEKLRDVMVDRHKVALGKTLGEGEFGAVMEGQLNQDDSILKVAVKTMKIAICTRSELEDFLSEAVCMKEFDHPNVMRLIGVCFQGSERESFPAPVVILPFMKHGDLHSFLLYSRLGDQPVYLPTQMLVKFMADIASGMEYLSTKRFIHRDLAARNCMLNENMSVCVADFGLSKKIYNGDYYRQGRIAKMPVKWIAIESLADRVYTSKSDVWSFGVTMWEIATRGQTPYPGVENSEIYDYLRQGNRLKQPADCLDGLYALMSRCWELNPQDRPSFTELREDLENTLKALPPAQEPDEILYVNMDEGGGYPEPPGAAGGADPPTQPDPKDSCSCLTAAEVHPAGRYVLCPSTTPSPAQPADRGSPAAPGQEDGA
Procedure: Assay 5: Test for Inhibitory Activities of the Compounds of the Present Invention on the Cell pAxl
H1299 is a non-small cell lung cancer cell.
Test substances: the compounds of the present invention, wherein the structures thereof were as described above.
Test equipment: protein electrophoresis apparatus (manufactured by Bio Rad), transfer unit (manufactured by Bio Rad), exposure unit (manufactured by Tanon), CO2, cell incubator (manufactured by Thermo).
The H1299 cells were inoculated in a 6-well plate (containing 10% FBS 1640 medium, 5×10^5 cells per well), and adherent cells were cultivated at 37° C. in a 5% CO2 condition for 18 hours. The cells were starved overnight. Different concentrations of compounds were added. The final compound concentrations were 1.1, 3.3, 10, and 30 nM, and the final DMSO content was 1‰. The negative control wells contained the medium containing 1‰ DMSO. After incubating at 37° C. in a 5% CO2 condition for 60 minutes, hGAS6 (R&D, final concentration 200 ng/mL) was added to each well. After further incubating for 60 minutes, the cell total protein was extracted for Western Blot and the […] values were calculated using GraphPad 5.0 software. The inhibitory activity of the compound on the cell pAxl was examined.

IC50 (Tyro-3 (h)) [nM] | IC50 (H1299 cell pAxl) [nM] | Compound
29 | < 1.1 | COc1cc2nccc(Oc3ccc(NC(=O)c4cn(C(C)C)cc(-c5ccc(C)cc5)c4=O)nc3)c2cc1OC [Compound 1, N-(5-((6,7-dimethoxyquinolin-4-yl)oxy)pyridin-2-yl)-1-isopropyl-4-oxo-5-p-tolyl-1,4-dihydropyridin-3-carboxamide]
21 | < 1.1 | COc1cc2nccc(Oc3ccc(NC(=O)c4cn(C(C)C)cc(-c5ccc(F)cc5)c4=O)nc3)c2cc1OC [Compound 14, N-(5-((6,7-dimethoxyquinolin-4-yl)oxy)pyridin-2-yl)-5-(4-fluorophenyl)-1-isopropyl-4-oxo-1,4-dihydropyridin-3-carboxamide]
13 | < 1.1 | COc1cc2nccc(Oc3ccc(NC(=O)c4nn(C(C)C)cc(-c5ccc(F)cc5)c4=O)nc3)c2cc1OC [Compound 15, N-(5-((6,7-dimethoxyquinolin-4-yl)oxy)pyridin-2-yl)-5-(4-fluorophenyl)-1-isopropyl-4-oxo-1,4-dihydropyridazine-3-carboxamide]
12 | < 1.1 | COc1cc2nccc(Oc3cnc(NC(=O)c4nn(C(C)C)cc(-c5ccc(F)cc5)c4=O)nc3)c2cc1OC [Compound 16, N-(5-((6,7-dimethoxyquinolin-4-yl)oxy)pyrimidine-2-yl)-5-(4-fluorophenyl)-1-isopropyl-4-oxo-1,4-dihydropyridazine-3-carboxamide]
– | < 1.1 | COc1cc2nccc(Oc3cnc(NC(=O)c4cn(C(C)C)cc(-c5ccc(F)cc5)c4=O)nc3)c2cc1OC [Compound 20, N-(5-((6,7-dimethoxyquinolin-4-y)oxy)pyrimidine-2-yl)-5-(4-fluorophenyl)-1-isopropyl-4-oxo-1,4-dihydropyridin-3-carboxamide]
12 | < 1.1 | COc1cc2nccc(Oc3ccc(NC(=O)c4nn(C(C)C)cc(-c5ccc(F)cc5)c4=O)cn3)c2cc1OC [Compound 29, N-(6-((6,7-dimethoxyquinolin-4-yl)oxy)pyridin-3-yl)-1-isopropyl-4-oxo-5-para-fluorophenyl-1,4-dihydropyridazine-3-carboxamide]
16 | < 1.1 | COc1cc2nccc(Oc3ccc(NC(=O)c4cn(C5CC5)cc(-c5ccc(F)cc5)c4=O)nc3)c2cc1OC [Compound 30, N-(5-((6,7-dimethoxyquinolin-4-yl)oxy)pyridin-2-yl)-1-cyclopropyl-4-oxo-5-para-fluorophenyl-1,4-hydropyridin-3-carboxamide]
7 | < 1.1 | COc1cc2nccc(Oc3ccc(NC(=O)c4nn(C5CC5)cc(-c5ccc(F)cc5)c4=O)nc3)c2cc1OC [Compound 31]
11 | < 1.1 | COc1cc2nccc(Oc3cnc(NC(=O)c4cn(C5CC5)cc(-c5ccc(F)cc5)c4=O)nc3)c2cc1OC [Compound 32, 1-cyclopropyl-N-(5-((6,7-dimethoxyquinolin-4-yl)oxy)pyrimidine-2-yl)-5-(4-fluorophenyl)-4-oxo-1,4-dihydropyridin-3-carboxamide]
8 | < 1.1 | COc1cc2nccc(Oc3cnc(NC(=O)c4nn(C5CC5)cc(-c5ccc(F)cc5)c4=O)nc3)c2cc1OC [Compound 33]
7 | < 1.1 | COc1cc2nccc(Oc3ncc(NC(=O)c4nn(C(C)C)cc(-c5ccc(F)cc5)c4=O)cn3)c2cc1OC [Compound 34, N-(2-((6,7-dimethoxyquinolin-4-yl)oxy)pyrimidine-5-yl)-5-para-fluorophenyl-1-isopropyl-4-oxo-1,4-dihydropyridazine-3-carboxamide]
7 | < 1.1 | COc1cc2nccc(Oc3ccc(NC(=O)c4nn(C5CC5)cc(-c5ccc(F)cc5)c4=O)cn3)c2cc1OC [Compound 36]
12 | < 1.1 | COc1cc2nccc(Oc3ncc(NC(=O)c4nn(C5CC5)cc(-c5ccc(F)cc5)c4=O)cn3)c2cc1OC [Compound 37, 1-cyclopropyl-N-(2-((6,7-dimethoxyquinolin-4-yl)oxy)pyrimidine-5-yl)-5-para-fluorophenyl-4-oxo-1,4-dihydropyridazine-3-carboxamide]
– | 1.1 to 3.3 | COc1cc2nccc(Oc3ccc(NC(=O)c4cn(C5CC5)nc(-c5ccc(F)cc5)c4=O)nc3)c2cc1OC [Compound 42, 2-cyclopropyl-N-(5--((6,7-dimethoxyquinolin-4-yl)oxy)pyridin-2-yl)-6-(4-fluorophenyl)-5-oxo-2,5-dihydropyridazine-4-carboxamide]
– | 3.3 | COc1cc2nccc(Oc3ccc(NC(=O)c4cn(C5CC5)nc(-c5ccc(F)cc5)c4=O)cn3)c2cc1OC [Compound 43, 2-cyclopropyl-N-(6-((6,7-dimethoxyquinolin-4-yl)oxy)pyridin-3-yl)-6-para-fluorophenyl-5-oxo-2,5-dihydropyridazine-4-carboxamide]
– | 1.1 | COc1cc2nccc(Oc3cnc(NC(=O)c4cn(C5CC5)nc(-c5ccc(F)cc5)c4=O)nc3)c2cc1OC [Compound 45, 2-cyclopropyl-N-(5-((6,7-dimethoxyquinolin-4-yl)oxy)pyrimidine-2-yl)-6-(4-fluorophenyl)-5-oxo-2,5-dihydropyridazine-4-carboxamide]
– | < 1.1 | COc1cc2nccc(Oc3ccc(NC(=O)c4nn(C5CC5)cc(-c5ccc(C)cc5)c4=O)nc3)c2cc1OC [Compound 46, 1-cyclopropyl-N-(5-((6,7-dimethoxyquinolin-4-yl)oxy)pyridin-2-yl)-4-oxo-5-p-tolyl-1,4-dihydropyridazine-3-carboxamide]
